Assay results from patent US12116636B2, “Methods for evaluating tumor cell spheroids using 3D microfluidic cell culture device” (Dana-Farber Cancer Institute, Inc., priority 2017, dated 2024).

Tested on: PDOTS
Assay: Bead-based cytokine profiling of PDOTS conditioned media
Assay type: cell-based, human
Procedure: Fresh tumor specimens (murine and human patients) were received in media (DMEM) on ice and minced in a 10 cm dish (on ice) using sterile forceps and scalpel. Minced tumor was resuspended in DMEM (4.5 mM glucose, […] sodium pyruvate, 1:100 penicillin-streptomycin) (Coming CellGro, Manassas, VA)+10% FBS (Gemini Bio-Products, West Sacramento, CA), 100 U/mL collagenase type IV (Life Technologies, Carlsbad, CA), and 15 mM HEPES (Life Technologies, Carlsbad, CA), except for CT26 tumors that were prepared in RPMI. Samples were pelleted and resuspended in 10-20 mL media. Red blood cells were removed from visibly bloody samples using RBC Lysis Buffer (Boston Bio-Products, Ashland, MA). […]
Two multiplex assays were performed utilizing a bead-based immunoassay approach, the Bio-Plex Pro™ Human Cytokine 40-plex Assay (Cat #171AK99MR2) and Bio-Plex Pro™ Mouse Cytokine Panel 1, 23-plex (Cat #M60009RDPD) on a Bio-plex 200 system (Cat #171000201). […] Fold changes relative to the MDOT/PDOT control were calculated and plotted as log 2FC. Lower and upper limits of quantitation (LLOQ/ULOQ) were imputed from standard curves for cytokines above or below detection. […]

| Substance | CCL19/CXCL13 induction in PDOTS (Day 3, relative to untreated control) | PDOTS samples with upregulation of CCL19 and CXCL13 (Day 3 cytokine release, n=28) |
| --- | --- | --- |
| ipilimumab [CTLA-4 blockade] | comparatively minimal | – |
| pembrolizumab [PD-1 blockade] | – | 23/28 |
